Tests used:
ROCK2 = ROCK2 (Homo sapiens (Human), UniProt O75116); test: ROCK2 inhibition curves, MYPT1 substrate plate assay; assay type: biochemical; conditions: purified ROCK2, MYPT1 substrate
Description: Each compound was dissolved at 100 mM in DMSO. This compound-DMSO solution is diluted to 500 μM in dH2O. Serial dilutions were prepared so that a semi-log range of compound is present after being diluted 5× in other assay reagents, from 100 μM through 1 nM.
10 μL of each concentration of each compound was added in duplicate to individual wells of a 96-well Maxisorp plate (ThermoFisher) pre-coated with the ROCK2 substrate MYPT1 (ThermoFisher). dH2O is added as a negative control.
Using a multichannel pipettor, […] of final volume per well was made by the addition of the following of each solution to begin the reaction: 10 μL 20 mM MOPS pH 7.2, 25 mM β-glycerophosphate, 5 mM EGTA, 1 mM Na3VO4, and 1 mM DTT, 10 μL 50 μM ATP, 10 μL 75 mM MgCl2, and 10 μL 1 mU/μL ROCK2 solution. […]
100 μL TMB/E solution was added to each well with a multichannel pipette. Upon sufficient color development, the reaction was stopped using 100 μL stop solution and absorbance read using a Wallac Victor2 plate reader at 450 nm.
Because absorbance values proportional to ROCK2 activity, plotting absorbance at 450 nm versus final concentration of metabolite and parent compound provides inhibition curves. Relative inhibitory profiles were determined through 4PL analysis of these curves. Variations in calculated IC50 are common before assay optimization due to variations in experimental variables.

hBMVEC monolayer = test: LPA-treated hBMVECs, endothelial monolayer integrity; assay type: cell-based, human; conditions: 1 μM or 10 μM, 20 μM LPA, Example 16, present tense
Description: Cells are exposed to each dose for 1 hr, and are then stimulated with 20 μM LPA for either 5 min or 1 hr as described below. All experiments are conducted in triplicate and analyzed by 2 independent assessors blinded to both cell line and treatment.
To examine hBMVECs monolayer integrity, cells are plated on PDL-coated coverslips (Corning) coated with Fibronectin, Collagen-1 and gelatin. 50,000 cells are seeded on each coverslip situated in a 24-well plate. Cells are grown for 3 days in ENDO-growth media (Neuromics) at 37° C./5% CO2. […] The medium is exchanged for ENDO basal media supplemented with 1% HSA, 20 μM of LPA (Santa Cruz Biotech; Santa Cruz, Calif.) and the appropriate amount of compound being tested. After 60 min, cells were fixed with 4% paraformaldehyde and stained for actin-phalloidin (ThermoFisher) and V-Cadherin (Cell Signaling), and then were mounted on microscope slides. Coverslips were imaged by fluorescence microscopy and the cell-free holes in the monolayer are measured using Image J. 3.

ROCK1 [1] = conditions: percent of negative control binding; second row printed ROCK1, text says ROCK1 and ROCK2
Source text: The KINOMEscan™ screening platform (DiscoverX, Fremont, Calif.) employs a novel active site-directed competition binding assay to quantitatively measure interactions between test compounds and more than 450 human kinases and disease relevant mutant variants. […] Compounds that bind the kinase active site and directly (sterically) or indirectly (allosterically) prevent kinase binding to the immobilized ligand, will reduce the amount of kinase captured on the solid support. […] Screening “hits” are identified by measuring the amount of kinase captured in test versus control samples by using a quantitative, precise and ultra-sensitive qPCR method that detects the associated DNA label.
Kinase-tagged T7 phage strains were grown in parallel in 24-well blocks in an E. coli host derived from the BL21 strain. E. coli were grown to log-phase and infected with T7 phage from a frozen stock (multiplicity of infection=0.4) and incubated with shaking at 32° C. until lysis (90-150 minutes). The lysates were centrifuged (6,000×g) and filtered (0.2 μm) to remove cell debris. The remaining kinases were produced in HEK-293 cells and subsequently tagged with DNA for qPCR detection (Wein, et al. (2016) Nat. Comm. 7). […] Test compounds were prepared as 40× stocks in 100% DMSO and directly diluted into the assay. All reactions were performed in polypropylene 384-well plates in a final volume of 0.02 ml.

HUVEC monolayer = test: LPA-treated HUVECs, endothelial monolayer integrity; assay type: cell-based, human; conditions: 1 μM or 10 μM, 20 μM LPA 60 min
Description: Cell lines were exposed to each dose for 1 hr, and then are stimulated with 20 μM LPA for either 5 min or 1 hr as described below. All experiments were conducted in triplicate and analyzed by two independent assessors blinded to both cell line and treatment.
To examine HUVEC monolayer integrity, cells were plated on PDL-coated coverslips (Corning) coated with fibronectin, collagen-1 and gelatin. 50,000 cells were seeded on each coverslip situated in a 24-well plate. Cells were grown for 3 days at 37° C./5% CO2. […] The medium was exchanged by Medium 200 supplemented with 0.1% HSA and 20 μM of LPA (Santa Cruz) and incubated for 60 min.
After LPA stimulation, cells were fixed with 4% paraformaldehyde and stained for actin-phalloidin (ThermoFisher, Waltham, Mass.) and V-Cadherin (Cell Signaling, Danvers, Mass.) and mounted on microscope slides. Coverslips were imaged by fluorescence microscopy and the cell free holes in the monolayer are measured using Image J (freeware; https://imagej.nih.gov/ij/).

ROCK1 [2] = target: ROCK1 (Homo sapiens (Human), UniProt Q13464); test: biochemical
Description: The assay is performed by combining the DNA-tagged kinase, immobilized ligand, and a test compound. The ability of the test compound to compete with the immobilized ligand is measured via quantitative PCR of the DNA tag.
The highest concentration tested was 30 μM.

[3] = Brain penetration after IV, IP or PO administration in C57BL/6 mice; assay type: in vivo, mouse; conditions: IV 5 mg/kg, IP 10 mg/kg, PO 30 mg/kg
Description: To determine the plasma concentrations and pharmacokinetics of the test compounds and test article following a single intravenous (IV) (5 mg/kg), intraperitoneal (IP) (10 mg/kg), or oral dose (PO) (30 mg/kg) administration to C57BL/6 male mice, the following testing [WAS/IS] performed according to the conductions set forth in Table 14.
The test drug is provided once as follows: Each I.V. dosing syringe is weighed loaded and unloaded to at least 4 decimal places. The actual dose (5 mg/kg) administered to the animal is the difference between the loaded and unloaded dosing syringe weights. Each IP dosing syringe is weighed loaded and unloaded to at least 4 decimal places. […]
Following I.V. dose administration, whole brain is collected following cardiocentesis from 4 animals at each of the following time points post-dose: 0.083 hr, 0.5 hr, 2 hr, 6 hr, 12 hr, and 24 hr. […] Whole brain is rinsed in 1×PBS, the tissue weight recorded and snap frozen in pre-labeled tubes using liquid nitrogen. In addition, whole brain from 5 naïve mice is harvested at 24 hr, rinsed in 1×PBS, the tissue weight recorded and snap frozen in pre-labeled tubes using liquid nitrogen.
Samples are analyzed by LC/MS/MS using an Agilent 6410 mass spectrometer coupled with an Agilent 1200 HPLC and a CTC PAL chilled autosampler, all controlled by MassHunter software (Agilent). […]

ROCK1 (Homo sapiens (Human), UniProt Q13464), sequence (Q13464 2-1354 limits assumed): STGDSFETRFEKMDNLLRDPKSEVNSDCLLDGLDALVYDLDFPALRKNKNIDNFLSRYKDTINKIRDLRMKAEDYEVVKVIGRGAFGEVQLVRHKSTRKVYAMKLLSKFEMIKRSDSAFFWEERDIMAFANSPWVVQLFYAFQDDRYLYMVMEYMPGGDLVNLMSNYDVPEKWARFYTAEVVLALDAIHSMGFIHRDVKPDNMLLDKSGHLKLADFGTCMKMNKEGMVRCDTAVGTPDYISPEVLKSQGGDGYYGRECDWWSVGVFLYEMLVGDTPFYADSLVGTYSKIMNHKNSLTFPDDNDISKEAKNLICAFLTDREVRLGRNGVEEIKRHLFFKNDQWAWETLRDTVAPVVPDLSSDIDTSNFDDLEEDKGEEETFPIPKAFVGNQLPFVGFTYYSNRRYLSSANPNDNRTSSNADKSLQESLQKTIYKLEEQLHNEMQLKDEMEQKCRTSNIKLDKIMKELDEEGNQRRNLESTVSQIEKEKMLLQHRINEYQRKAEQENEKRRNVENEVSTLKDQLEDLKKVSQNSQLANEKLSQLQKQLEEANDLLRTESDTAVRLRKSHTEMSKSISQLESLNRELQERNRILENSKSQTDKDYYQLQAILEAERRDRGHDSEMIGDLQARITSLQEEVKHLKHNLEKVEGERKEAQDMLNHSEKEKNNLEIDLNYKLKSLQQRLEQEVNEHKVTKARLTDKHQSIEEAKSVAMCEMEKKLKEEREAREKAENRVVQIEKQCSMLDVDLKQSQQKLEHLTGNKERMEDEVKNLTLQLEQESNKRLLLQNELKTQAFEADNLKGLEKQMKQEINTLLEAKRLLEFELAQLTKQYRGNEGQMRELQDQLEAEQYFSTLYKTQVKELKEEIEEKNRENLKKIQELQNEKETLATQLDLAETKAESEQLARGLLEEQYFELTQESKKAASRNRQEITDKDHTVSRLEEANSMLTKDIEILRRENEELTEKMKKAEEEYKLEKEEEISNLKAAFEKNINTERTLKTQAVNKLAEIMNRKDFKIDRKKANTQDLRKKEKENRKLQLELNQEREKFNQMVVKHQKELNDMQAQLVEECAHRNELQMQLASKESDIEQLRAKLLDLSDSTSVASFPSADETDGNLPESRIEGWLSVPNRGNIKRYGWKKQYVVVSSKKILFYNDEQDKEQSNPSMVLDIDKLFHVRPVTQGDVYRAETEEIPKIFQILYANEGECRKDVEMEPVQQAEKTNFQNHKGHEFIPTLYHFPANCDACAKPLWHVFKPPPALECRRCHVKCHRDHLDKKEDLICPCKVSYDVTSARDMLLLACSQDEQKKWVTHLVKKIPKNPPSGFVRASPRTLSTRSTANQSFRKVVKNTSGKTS
ROCK2, sequence (O75116 whole entry, species assumed): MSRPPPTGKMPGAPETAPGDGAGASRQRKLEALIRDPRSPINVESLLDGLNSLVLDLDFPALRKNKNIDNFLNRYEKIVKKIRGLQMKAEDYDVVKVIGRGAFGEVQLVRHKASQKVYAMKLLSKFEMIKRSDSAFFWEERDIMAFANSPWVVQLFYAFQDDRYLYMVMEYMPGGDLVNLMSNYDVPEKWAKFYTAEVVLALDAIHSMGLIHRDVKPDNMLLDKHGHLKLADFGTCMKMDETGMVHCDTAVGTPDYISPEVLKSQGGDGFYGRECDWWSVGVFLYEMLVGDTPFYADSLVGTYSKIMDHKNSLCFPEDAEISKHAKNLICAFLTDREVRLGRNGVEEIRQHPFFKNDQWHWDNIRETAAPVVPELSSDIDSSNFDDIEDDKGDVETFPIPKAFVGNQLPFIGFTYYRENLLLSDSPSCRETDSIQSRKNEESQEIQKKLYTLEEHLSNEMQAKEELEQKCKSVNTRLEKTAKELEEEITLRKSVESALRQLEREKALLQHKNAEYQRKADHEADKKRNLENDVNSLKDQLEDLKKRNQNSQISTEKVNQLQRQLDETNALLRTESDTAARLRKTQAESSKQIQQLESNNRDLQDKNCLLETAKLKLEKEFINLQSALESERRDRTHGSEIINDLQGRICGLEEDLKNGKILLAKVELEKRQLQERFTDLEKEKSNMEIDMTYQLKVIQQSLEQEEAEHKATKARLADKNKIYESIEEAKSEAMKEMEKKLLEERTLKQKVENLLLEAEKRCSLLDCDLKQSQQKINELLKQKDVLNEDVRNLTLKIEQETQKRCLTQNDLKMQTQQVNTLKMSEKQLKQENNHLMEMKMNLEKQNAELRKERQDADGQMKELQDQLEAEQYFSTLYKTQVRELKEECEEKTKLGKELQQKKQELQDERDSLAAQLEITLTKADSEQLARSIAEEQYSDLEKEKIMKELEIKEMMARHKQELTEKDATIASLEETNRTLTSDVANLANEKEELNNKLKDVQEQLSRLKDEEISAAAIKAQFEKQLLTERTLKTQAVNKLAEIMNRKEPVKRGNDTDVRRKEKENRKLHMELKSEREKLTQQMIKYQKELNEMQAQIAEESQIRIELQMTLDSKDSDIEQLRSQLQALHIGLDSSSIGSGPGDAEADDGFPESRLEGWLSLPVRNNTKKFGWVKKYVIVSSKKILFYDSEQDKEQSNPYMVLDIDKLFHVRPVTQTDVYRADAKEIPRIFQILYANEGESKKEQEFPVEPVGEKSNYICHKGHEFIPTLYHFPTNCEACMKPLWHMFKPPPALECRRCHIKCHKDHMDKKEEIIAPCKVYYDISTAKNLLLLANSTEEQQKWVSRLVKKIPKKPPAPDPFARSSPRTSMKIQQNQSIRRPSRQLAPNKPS

SMILES | inhibitory activity for ROCK2 relative to parent BA-1049 (R) (ROCK2) | monolayer integrity / Rho/ROCK activation after LPA (hBMVEC monolayer) | % Negative Binding, ROCK1 (ROCK1 [1]) [%] | monolayer integrity after LPA (HUVEC monolayer) | Kd (ROCK1 [2]; ROCK1 KD, average of duplicate determinations, Table 5) [nM] | Kd (ROCK1 [2]; ROCK1 Kd, Table 1) [nM] | penetration into the brain [3]
C[C@@H](N)C1CCN(S(=O)(=O)c2cccc3c(=O)[nH]ccc23)CC1 [1-hydroxy-BA-1049 (R)] | ½ log more potent as an inhibitor of ROCK2 activity than the parent | prevent Rho/ROCK activation | 0.35 | restores monolayer integrity |  |  | 
C[C@@H](N)C1CCN(S(=O)(=O)c2cccc3cnccc23)CC1 [BA-1049 (R)] |  |  |  |  | 99 | 110 | able to penetrate the brain by the three routes of administration

Reference: patent US11198680B2 (BioAxone BioSciences, Inc., priority 2016, dated 2021)
